# Source: US5441983A, “Treatment of infection by enveloped virus with calix(N)arene compounds” (Genelabs Incorporated, priority 1992, dated 1995)
# Legend:
# [1] = test system: HSV-1; assay: Plaque reduction assay, HSV-1, Vero cells; type: cell-based, HSV-1 (Kos-1); details: Human alphaherpesvirus 1, Vero, plaque reduction, Vero cells
# [2] = test system: Influenza A (Taiwan); assay: Inhibition of influenza A cytopathic effect (clumping) in MDCK cells; type: cell-based, Influenza A virus (A/Taiwan strain); details: Influenza A virus, 24 h, 50% reduction in percent clumped cells, read-out: ED50 Influenza A (Taiwan)
# Method: With virus infection, a cytopathic effect characterized by cell clumping is observed. For each compound tested, drug concentrations of 0.1, 1, 10, 25, and 100 μg/ml were added to cultured cells at the time of virus infection, as detailed in Examples 9 and 11. […] The inhibition of clumping was plotted as a function of drug concentration, to determine the dose effective to produce a 50% reduction in the percent clumped cells, measured with respect to control (no drug treatment).
# Assays to assess the antiviral activity of KY- and Y-compounds in tissue culture were performed in 96-well flat-bottom tissue culture plates (Falcon 307), using conditions similar to those used in the cytotoxicity assays described above. In these assays, compound was tested in quadruplicate by serially diluting the compound in 2% FCS-MEM using serial two-fold dilutions (0.05 ml/well). A 0.05 ml volume of the appropriate virus containing approximately 100 median tissue culture infectious doses (TCID50) was then added to all wells except those set aside as antiviral and tissue control wells. Next, approximately 3×10^3 HEp2 cells (0.1 ml) were added to each well. Control wells containing antiviral and no virus (antiviral control), containing virus but no antiviral (virus control), or containing medium without virus or antiviral (tissue control), were included in each test. The challenge virus was then back titrated. All assay plates were incubated at 35° C. for 5 to 7 days in a 5% CO2 incubator.
# The anti-influenza A activity of KY compounds was evaluated as described in Example 9, except that MDCK cells (kidney cell line) was used for infection in vitro by influenza virus (strain A/Taiwan).
# [3] = test system: HSV-1 binding to Vero cells; assay: Inhibition of binding of radiolabeled HSV-1 to Vero cells; type: cell-based; details: 10 μg/ml KY-1, FIG. 30
# Method: In one study, the ability of a macrocyclic compound to block HSV binding to infectable cells was examined as described in Example 14. Briefly, Vero cells were exposed to radiolabeled HSV-1 or HSV-2 in the absence of KY compound or in the presence of 10 μg/ml KY-1, and binding of the virus at times up to 4 hours after exposure to the virus was measured. […] In the absence of drug, the amount of bound virus increased steadily over two hours, and slightly from 2-4 hours. By contrast, virus binding to cells peaked at about 1/2 hour in the presence of drug, presumably reflecting the time during which the binding events effective to block virus binding to the cells are equilibrating.
# At time intervals of 5, 30, 60, 120, and 240 minutes, cells were removed from the suspension, washed two times with PBS, and assayed for bound virus (cpm ^3 H). The results are given in FIG. 30, where the control virus binding is indicated by solid circles, and the drug-inhibited binding, by open rectangles.
# [4] = test system: HSV glycoproteins gD, gB, and gC; assay: Identification of KY-1 binding proteins; set-up: species or system HSV-1; details: FIG. 32B
# Description: In a fourth study, the binding of radiolabeled KY-1 compound to HSV-1 and HSV-2 viral proteins was examined. After compound binding, virus proteins were fractionated by sodium dodecyl sulfate polyacrylamide gel electrophoresis (SDS-PAGE), and the gel patterns developed by autoradiography. In FIG. 32A, lanes A and B in the figure are autoradiographs of HSV-1 proteins in the presence ([…]) and absence (lane B) of mercaptoethanol, and lanes C and D, analogous patterns for HSV-2 proteins. The lane at the right contains the molecular weight markers, as indicated. The major bands of drug binding in HSV-1 have molecular weights, as determined from SDS-PAGE, of 45, 66, and about 130 kilodaltons.
# HSV-1 and HSV-2 virus suspensions were solubilized with SDS and fractionated on SDS-PAGE as above. Each sample was run in triplicate, corresponding to groups D, B, and C in FIG. 32B. The two gels in each group were analyzed by Western blotting as follows: The gels in groups D, B, and C were first reacted with mouse monoclonal antibody specific against HSV glycoprotein gD, gB, and dC, respectively. The antibodies were obtained from Dr. S. Chatterjee from the University of Alabama. The gels were then incubated with alkaline phosphatase-labeled goat antimouse antibody, to label the glycoprotein in each group. […]
# [5] = test system: rhinovirus; assay: Inhibition of rhinovirus cytopathic effect in Vero cells; type: cell-based; details: 1-100 μg, 24 h
# Method: The ability of KY compounds to inhibit cell infection by a rhinovirus and adenoviruses 5 and 7 which are non-enveloped viruses, was similarly studied. Vero cells (10^5) were infected with a rhinovirus in the presence of KY-1, at concentrations ranging between 1-100 μg. Twenty-four hours after virus infection, the cells were examined for cytopathic effect, evidencing viral infection.
# [6] = test system: HSV-2 333; assay: Inhibition of viral yield, wild type HSV-2 333; details: Human alphaherpesvirus 2, HeLa, read-out: ID90
# [7] = test system: HSV-1 KOS(PMEA)'; assay: Inhibition of viral yield, drug-resistant HSV-1 KOS(PMEA)'; details: Human alphaherpesvirus 1, HeLa, read-out: ID90
# Method: These compounds tested were the nucleoside analogs acyclovir (ACV), ganciclovir (DHPG), phosphonoformate (PFA), and phosphomethoxyethyladenine (PMEA). Inhibition of viral yield was determined, as above, by infecting Hela cells in the presence of wild type or drug-resistant strains of HSV-1 or HSV-2, and serial dilutions of a selected anti-viral compound, and infecting Vero cells with serial dilutions of the Hela cell lysate, as above.
# The KOS (HSV-1) and 333 (HSV-2) are wild type viruses; the KOS(PMEA)' and KOS(PFA)' are drug-resistant HSV-1 strains having a DNA polymerase mutation. The 333(DHPG) strain is a drug-resistantHSV-2 strain having a thymidine kinase mutation.
# The following strains of HSV-1 and HSV-2 virus were used: KOS, a wild type HSV-1 virus; KOS (PMEA) and KOS (PFA), both drug-resistant HSV-1 viruses having a DNA polymerase mutation; 333, a wild type HSV-2 HSV-2 virus, and 333 (DHPG), a drug-resistant HSV-2 virus having a thymidine kinase mutation.
# After growth at 37° C. for 24 hours in 2 ml of RPMI-1640 containing 2% FCS and penicillin and streptomycin (P/S), the cells were frozen at -70° C. until the time for titration. The cells were freeze/thawed 3 times to release virus from the cells, serially diluted 10 fold, and the serial dilutions were added to Vero cells in culture. After 2 hours incubation at 37° C. the virus was removed and 0.5 ml methycellulose (4K cps) in RPMI-1640 and 2% FCS+P/S was added. Two days later, the medium was removed. The cells were stained in 0.8% crystal violet in 50% ethanol. The plaques formed were counted and the titer was calculated from the fold of dilutions. From the drug dose response, the concentration of each drug required to effect a 90% inhibition of virus yield, the IC90 concentration was determined.
# [8] = test system: HSV-1 and HSV-2; assay: Viral yield inhibition, HeLa cells, plaque count on Vero cells; details: up to 10 μg/ml, FIGS. 29A and 29B, depending on drug and virus
# Method: The ability of selected naphthalene-subunit compounds to inhibit HSV-1 and HSV-2 viral yields at selected drug concentrations up to 10 μg/ml was assessed in the viral inhibition assay described in Example 7. Briefly, cultured Hela cells were exposed to serially diluted KY compound and virus, allowed to grow for 24 hours, then freeze/thawed 3 times to release virus particles. Vero cells were infected serial dilutions of the viral lysates were assayed for plaque counts as described in Example 6.
# 1×10^6 HeLa S3 were plated in 25 T flasks in 5 ml RPMI-1640+5% FCS+P/S. 24 hours later, the medium was aspirated and replaced with 6×10^6 PFU HSV-1 or HSV-2, and serial dilutions of selected KY compounds, at 10, 5, 2.5, 1.25, and 0.625 μg/ml drug. After growth at 37° C. for 24 hours in 2 ml of RPMI-1640 containing 2% FCS and P/S, the cells were frozen at -70° C. until the time for titration. The cells were freeze/thawed 3 times to release virus from the cells, and serially diluted 10 fold.
# 1×10^5 Vero cells were plated in each well of 24 well multi-dish in 1 ml RPMI-1640+5% FCS+P/S+0.1% methylcellulose (15 cps). On the second day, after removal of the medium, the 10 fold serially diluted virus in 100 μl was added in duplicate. […] The plaques formed were counted and the titer was calculated from the fold of dilutions.
# [9] = test system: HSV-1; assay: Inactivation of purified HSV-1 by compound, plaque number after serial dilution; details: for Plaque number, dilution 10^2 / Plaque number, dilution 10^3 / Plaque number, dilution 10^4 / Plaque number, dilution 10^5 / Plaque number, dilution 1 / Plaque number, dilution 10^1: 10 μg/ml, duplicate
# Method: In a third study, purified HSV-1 virus suspensions were incubated with KY-1 or the sodium salt thereof, or a control solution for 1 hour, then serially diluted to drug concentrations between 10^1 to 10^-4 μg/ml as described in Example 16. The "X" symbol in the table indicates plaques too numerous to count.
# Purified HSV-1 was suspended in RPMI-1640 medium (Gibco Laboratories) containing 2% FCS, penicillin and streptomycin. […] The suspensions were incubated for 1 hour at 37° C., then diluted serially at 10 fold dilutions to final drug concentrations of 10, 10^0, 10^-1, 10^-2, 10^-3 and 10^-4 μg/ml drug concentrations The serially diluted particles were then added to Vero cells for two hours, as in Example 6, and the cells examined for plaques 48 hours later.
smiles,measurement,setting,value
O=S(=O)(O)c1cc2cc(S(=O)(=O)O)c3c(O)c2c(O)c1Cc1c(S(=O)(=O)O)cc2cc(S(=O)(=O)O)c(c(O)c2c1O)Cc1c(S(=O)(=O)O)cc2cc(S(=O)(=O)O)c(c(O)c2c1O)Cc1c(S(=O)(=O)O)cc2cc(S(=O)(=O)O)c(c(O)c2c1O)C3 [KY-1],IC50,[1],2.7 µg/mL
same,EC50,[2],> 188 µg/mL
same,time at which virus binding to cells peaked,[3],about 1/2
same,proteins bound (major bands),[4],"correspond in molecular weight, to HSV glycoproteins gD, gB, and gC"
same,"reduction in cell clumping, rhinovirus",[5],No reduction in cell clumping
same,IC90,[6],3.2 µg/mL
same,IC90,[7],2.6 µg/mL
same,dose dependent drop in viral yield,[8],3-5 orders of magnitude
same,"Plaque number, dilution 10^2",[9]; 0.3 pfu/cell,"0,0"
same,"Plaque number, dilution 10^3",[9]; 0.3 pfu/cell,"0,0"
same,"Plaque number, dilution 10^4",[9]; 0.3 pfu/cell,"0,0"
same,"Plaque number, dilution 10^5",[9]; 0.3 pfu/cell,"0,0"
same,"Plaque number, dilution 1","[9]; 0.3 pfu/cell, listed as KY 1","3,2"
same,"Plaque number, dilution 10^1","[9]; 0.3 pfu/cell, listed as KY 1","0,0"
same,"Plaque number, dilution 10^4",[9]; 3 pfu/cell,"0,0"
same,"Plaque number, dilution 10^5",[9]; 3 pfu/cell,"0,0"
same,"Plaque number, dilution 1","[9]; 3 pfu/cell, listed as KY 1","2,2"
same,"Plaque number, dilution 10^1","[9]; 3 pfu/cell, listed as KY 1","2,1"
same,"Plaque number, dilution 10^2","[9]; 3 pfu/cell, listed as KY 1","17,16"
same,"Plaque number, dilution 10^3","[9]; 3 pfu/cell, listed as KY 1","5,2"
same,final drug concentration with complete virus inhibition,[9]; after dilution of treated virus,10^-2 to 10^-4 μg/ml
